In article PMC3273469, “BACE1 Inhibition Induces a Specific Cerebrospinal Fluid β-Amyloid Pattern That Identifies Drug Effects in the Central Nervous System” (PLoS ONE, 2012):

Target: BACE1 (Homo sapiens, UniProt P56817)
Assay: Cellular Aβ[…] secretion ELISA (SH-SY5Y APP695wt cells); IP-MS Aβ pattern
Assay type: cell-based

BACE1, sequence (P56817 46-501): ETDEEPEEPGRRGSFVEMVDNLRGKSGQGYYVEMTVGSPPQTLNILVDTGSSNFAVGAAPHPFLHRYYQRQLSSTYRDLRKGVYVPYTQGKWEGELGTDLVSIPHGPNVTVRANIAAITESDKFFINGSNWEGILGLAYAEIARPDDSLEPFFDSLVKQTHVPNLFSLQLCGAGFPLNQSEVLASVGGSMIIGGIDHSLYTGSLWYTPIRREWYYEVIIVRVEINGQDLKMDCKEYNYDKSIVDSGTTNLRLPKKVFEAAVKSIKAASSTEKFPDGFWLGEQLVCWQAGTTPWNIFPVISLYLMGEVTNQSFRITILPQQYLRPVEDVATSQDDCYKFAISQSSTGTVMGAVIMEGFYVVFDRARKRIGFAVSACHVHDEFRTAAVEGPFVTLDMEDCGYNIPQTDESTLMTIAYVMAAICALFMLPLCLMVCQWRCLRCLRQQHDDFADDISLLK

- IC50: 8.2 ± 1.4 nM
Substance: AZ-20
